Here are results for one compound from patent US20050113318A1, “Combination of dehydroepiandrosterone or dehydroepiandrosterone-sulfate with a beta-agonist bronchodilator for treatment of asthma or chronic obstructive pulmonary disease” (priority 2003, published 2005).

Where “and” joins values, the source holds several entries; their conditions need not be identical. Equal values may be shown once.

Data set [1] can be described thus: Particle size of DHEA-S powders (laser diffraction, light microscope). It is filed as physicochemical. The settings on record: for mean particle size: spray dried, two batches. As to the method:
Approximately 1 g sample was passed through the jet mill, once, and approximately 2 g sample were passed through the jet mill twice. […] The resulting solution was sonicated for 3 minutes and appeared fully dispersed. The dispersed solutions were tested on a Malvern Mastersizer X with a small volume sampler (SVS) attachment. One sample of dispersed material was tested 5 times. The median particle size or D (v, 0.5) of unmilled material was 52.56 μm and the % RSD (relative standard deviation) was 7.61 for the 5 values. The D (v, 0.5) for a single pass through the jet mill was 3.90 μm and the % RSD was 1.27, and the D (v, 0.5) from a double pass through the jet mill 3.25 μm and the % RSD was 3.10.
The solution was spray-dried with a B-191 Mini Spray-Drier (Buchi, Flawil, Switzerland) with an inlet temperature of 55° C., outlet temperature of 40° C., at 100% aspirator, at 10% pump, nitrogen flow at 40 mbar and spray flow at 600 units. The spray-dried product was suspended in hexane and Span85 surfactant added to reduce agglomeration. The dispersions were sonicated with cooling for 3-5 minutes for complete dispersion and the dispersed solutions tested on a Malvern Mastersizer X with a Small Volume Sampler (SVS) attachment. […] Visual examination by light microscope of the dispersions of each batch confirmed that spray drying produced small respirable size particles. The mean particle size was 2.4 μm and 2.0 μm for each batch, respectively.
Surface area is determined using five point BET analyses are performed with nitrogen as the adsorbing gas (P/Po=0.05 to 0.30) using a Micromeritics TriStar surface area analyzer. Particle size distributions are measured by laser diffraction using a Micromeritics Saturn Digisizer where the particles are suspended in mineral oil th sodium dioctyl sodium sulfosuccinate as a dispersing agent. Drug substance water content is measured by Karl Fischer titration (Schott Titroline KF). Pure water is used as the standard and all relative standard deviations for triplicates are less than 1%. Powder is added directly to the titration media.

Data set [2] in a line: Fine particle fraction, single-dose Acu-Breathe inhaler into Andersen impactor. Format: physicochemical. The settings on record: 30 L/min, IDL data, FIG. 1; result set to zero. As to the method:
These blisters are actuated into the Andersen 8-stage cascade impactor at flow rates ranging from 30 to 75 L/min with a glass twin-impinger throat. Stages 1-5 of the Andersen impactor are rinsed together to obtain an estimate of the fine particle fraction. Pooling the drug collected from multiple stages into one assay make the method much more sensitive. […] Using a carrier with a larger particle size typically improves the aerosol properties of micronized drug substances.
Approximately 25 mg of this powder is filled and sealed in foil blisters and aerosolized using the single-dose device at 60 L/min. The aerosol results for this preliminary powder blend are satisfactory for a respiratory drug delivery system. […] This diameter is smaller than the median diameter measured for micronized DHEA-S.dihydrate by laser diffraction. Irregularly shaped particles can behave aerodynamically as smaller particles since their longest dimension tends to align with the air flow field. Therefore, it is common to see a difference between the two methods. Diffraction measurements are a quality control test for the input material while cascade impaction is a quality control test for the finished product.

With `C[C@]12CC[C@H](OS(=O)(=O)[O-])CC1=CC[C@@H]1[C@@H]2CC[C@]2(C)C(=O)CC[C@@H]12.[Na+]` [Anhydrous DHEA-S], the “median particle size D (v, 0.5)” value in data set [1] (double pass through the jet mill) worked out at 3.25 μm; in data set [1] (single pass through the jet mill) it was 3.90 μm; in data set [1] (unmilled material, Malvern Mastersizer X), 52.56 μm. Also, the mean particle size in data set [1] (Malvern Mastersizer X) is 5.07±0.70 μm and 6.66±0.91 μm; in data set [1] (visual examination by light microscope), 2.4 μm and 2.0 μm. Further, the fine particle fraction result in data set [2] is “no detectable mass entered the impactor”.
